According to patent US9326506B2, “Preparation method, agricultural composition and applications of natural brassinolide analogs” (CHENGDU NEWSUN CROPSCIENCE CO., LTD, priority 2012, dated 2016):

Test system: rice
Experiment: Low temperature assay on rice seedlings
Type: in vivo
Method: According to a low temperature assay, we measured parameters including plant height, number of leaf, area of leaf, number of tiller, weight of root at low temperature to completely determine effects of the natural brassinolide analogues on the resistance to low temperature of a plant.
The natural brassinolide analogues, BR1, BR2, BR3, BR4, BR5 and BR6, used herein, were those prepared by the method of Example 1. Respectively the analogues were dissolved into 95% (V/V) ethanol solution, and then diluted with pure water to 1 mg/L, 0.1 mg/L, 0.01 mg/L, 0.001 mg/L and 0.0001 mg/L. In addition, pure water was used as a control.
After rice seeds were disinfected by using 5% sodium hypochlorite solution treatment, they were rinsed with distilled water until their pH>7, placed into a petri dish in a dark incubator, and cultured by using water at 30° C.±2° C. for 9 days. Then respectively the nine-day-old etiolated seedlings of rice were immersed in the above solutions containing different concentrations of the natural brassinolide analogues or pure water, and cultured at the temperature of 1° C., 2° C., 3° C., 4° C. and 5° C. for 24 hr. The parameters including plant height, area of leaf and weight of root after 3, 6, 9 and 12 days and number of leaf and number of tiller after 12 days were measured.

CC(C)C[C@@H](O)[C@H](O)[C@@H](C)[C@H]1CCC2C3CC(=O)C4C[C@H](O)[C@H](O)C[C@]4(C)C3CC[C@@]21C (stereo partly shown) [BR5]
6.8 cm: Height (0.0001 mg/l, 1 °C, 3 days) | Height (0.0001 mg/l, 2 °C, 3 days)
7.5 cm: Height (0.0001 mg/l, 3 °C, 12 days) | Height (0.0001 mg/l, 4 °C, 9 days) | Height (0.0001 mg/l, 5 °C, 9 days) | Height (0.001 mg/l, 4 °C, 9 days) | Height (0.001 mg/l, 4 °C, 12 days) | Height (0.001 mg/l, 5 °C, 6 days) | Height (0.01 mg/l, 1 °C, 12 days) | Height (0.01 mg/l, 2 °C, 9 days) | Height (0.01 mg/l, 2 °C, 12 days)
2: Number of tiller (0.0001 mg/l, 3 °C, 12 days) | Number of tiller (0.0001 mg/l, 4 °C, 12 days) | Number of tiller (0.0001 mg/l, 5 °C, 12 days) | Number of tiller (0.001 mg/l, 3 °C, 12 days) | Number of tiller (0.001 mg/l, 4 °C, 12 days)
3.1 g: Weight of root (0.0001 mg/l, 1 °C, 6 days) | Weight of root (0.001 mg/l, 1 °C, 6 days) | Weight of root (0.01 mg/l, 1 °C, 9 days)
3.6 g: Weight of root (0.0001 mg/l, 1 °C, 12 days)
10 cm^2: Area of leaf (0.0001 mg/l, 2 °C, 3 days) | Area of leaf (0.0001 mg/l, 3 °C, 3 days) | Area of leaf (0.0001 mg/l, 4 °C, 3 days) | Area of leaf (0.001 mg/l, 3 °C, 3 days) | Area of leaf (0.001 mg/l, 4 °C, 3 days)
11.2 cm^2: Area of leaf (0.0001 mg/l, 1 °C, 6 days)
10.2 cm^2: Area of leaf (0.0001 mg/l, 5 °C, 3 days) | Area of leaf (0.001 mg/l, 5 °C, 3 days) | Area of leaf (0.01 mg/l, 3 °C, 3 days)
11.1 cm^2: Area of leaf (0.01 mg/l, 2 °C, 6 days)
7.6 cm: Height (0.0001 mg/l, 4 °C, 12 days) | Height (0.001 mg/l, 5 °C, 9 days)
3.9 g: Weight of root (0.001 mg/l, 1 °C, 12 days) | Weight of root (0.001 mg/l, 2 °C, 12 days) | Weight of root (0.01 mg/l, 1 °C, 12 days)
3: Number of leaf (0.0001 mg/l, 1 °C, 12 days) | Number of tiller (0.0001 mg/l, 1 °C, 12 days) | Number of leaf (0.0001 mg/l, 2 °C, 12 days) | Number of tiller (0.0001 mg/l, 2 °C, 12 days) | Number of leaf (0.0001 mg/l, 3 °C, 12 days) | Number of leaf (0.0001 mg/l, 4 °C, 12 days) | Number of leaf (0.0001 mg/l, 5 °C, 12 days) | Number of leaf (0.001 mg/l, 1 °C, 12 days) | Number of tiller (0.001 mg/l, 1 °C, 12 days) | Number of leaf (0.001 mg/l, 2 °C, 12 days) | Number of tiller (0.001 mg/l, 2 °C, 12 days) | Number of leaf (0.001 mg/l, 3 °C, 12 days) | Number of leaf (0.001 mg/l, 4 °C, 12 days) | Number of leaf (0.001 mg/l, 5 °C, 12 days) | Number of tiller (0.001 mg/l, 5 °C, 12 days) | Number of leaf (0.01 mg/l, 1 °C, 12 days) | Number of tiller (0.01 mg/l, 1 °C, 12 days) | Number of leaf (0.01 mg/l, 2 °C, 12 days) | Number of tiller (0.01 mg/l, 2 °C, 12 days)
3 g: Weight of root (0.01 mg/l, 2 °C, 6 days) | Weight of root (0.01 mg/l, 2 °C, 9 days)
7.1 cm: Height (0.0001 mg/l, 2 °C, 9 days) | Height (0.001 mg/l, 1 °C, 6 days) | Height (0.001 mg/l, 2 °C, 6 days) | Height (0.001 mg/l, 4 °C, 3 days) | Height (0.01 mg/l, 2 °C, 3 days) | Height (0.01 mg/l, 3 °C, 3 days)
12.2 cm^2: Area of leaf (0.001 mg/l, 2 °C, 9 days) | Area of leaf (0.01 mg/l, 3 °C, 9 days)
15.4 cm^2: Area of leaf (0.001 mg/l, 5 °C, 9 days)
3.0 g: Weight of root (0.0001 mg/l, 2 °C, 6 days) | Weight of root (0.0001 mg/l, 5 °C, 12 days) | Weight of root (0.001 mg/l, 2 °C, 6 days) | Weight of root (0.001 mg/l, 5 °C, 9 days) | Weight of root (0.01 mg/l, 1 °C, 6 days)
2.5 g: Weight of root (0.0001 mg/l, 3 °C, 3 days) | Weight of root (0.0001 mg/l, 4 °C, 3 days) | Weight of root (0.0001 mg/l, 5 °C, 3 days) | Weight of root (0.001 mg/l, 3 °C, 3 days) | Weight of root (0.001 mg/l, 4 °C, 3 days) | Weight of root (0.01 mg/l, 3 °C, 3 days)
12.3 cm^2: Area of leaf (0.0001 mg/l, 3 °C, 9 days)
12.4 cm^2: Area of leaf (0.0001 mg/l, 2 °C, 9 days) | Area of leaf (0.001 mg/l, 3 °C, 9 days)
12.8 cm^2: Area of leaf (0.001 mg/l, 1 °C, 9 days)
7.3 cm: Height (0.0001 mg/l, 4 °C, 6 days) | Height (0.001 mg/l, 1 °C, 12 days) | Height (0.001 mg/l, 2 °C, 9 days) | Height (0.001 mg/l, 2 °C, 12 days) | Height (0.001 mg/l, 3 °C, 9 days) | Height (0.001 mg/l, 4 °C, 6 days) | Height (0.01 mg/l, 1 °C, 9 days)
9.8 cm^2: Area of leaf (0.0001 mg/l, 1 °C, 3 days) | Area of leaf (0.001 mg/l, 2 °C, 3 days)
8 cm: Height (0.001 mg/l, 5 °C, 12 days)
16 cm^2: Area of leaf (0.001 mg/l, 5 °C, 12 days)
7.7 cm: Height (0.0001 mg/l, 5 °C, 12 days)
3.2 g: Weight of root (0.0001 mg/l, 2 °C, 9 days) | Weight of root (0.001 mg/l, 2 °C, 9 days) | Weight of root (0.01 mg/l, 2 °C, 12 days)
7.4 cm: Height (0.0001 mg/l, 2 °C, 12 days) | Height (0.0001 mg/l, 3 °C, 9 days) | Height (0.001 mg/l, 3 °C, 12 days)
14 cm^2: Area of leaf (0.0001 mg/l, 5 °C, 12 days) | Area of leaf (0.001 mg/l, 5 °C, 6 days)
11.8 cm^2: Area of leaf (0.0001 mg/l, 3 °C, 6 days)
12.1 cm^2: Area of leaf (0.001 mg/l, 4 °C, 6 days) | Area of leaf (0.01 mg/l, 2 °C, 9 days)
13.2 cm^2: Area of leaf (0.0001 mg/l, 3 °C, 12 days) | Area of leaf (0.0001 mg/l, 5 °C, 9 days)
2.8 g: Weight of root (0.0001 mg/l, 1 °C, 3 days) | Weight of root (0.0001 mg/l, 2 °C, 3 days) | Weight of root (0.001 mg/l, 1 °C, 3 days) | Weight of root (0.001 mg/l, 2 °C, 3 days) | Weight of root (0.001 mg/l, 5 °C, 3 days) | Weight of root (0.01 mg/l, 1 °C, 3 days) | Weight of root (0.01 mg/l, 2 °C, 3 days)
10.1 cm^2: Area of leaf (0.001 mg/l, 1 °C, 3 days) | Area of leaf (0.01 mg/l, 1 °C, 3 days) | Area of leaf (0.01 mg/l, 2 °C, 3 days)
7.2 cm: Height (0.0001 mg/l, 1 °C, 12 days) | Height (0.0001 mg/l, 3 °C, 6 days) | Height (0.0001 mg/l, 5 °C, 6 days) | Height (0.001 mg/l, 1 °C, 9 days) | Height (0.001 mg/l, 5 °C, 3 days) | Height (0.01 mg/l, 1 °C, 6 days) | Height (0.01 mg/l, 2 °C, 6 days) | Height (0.01 mg/l, 3 °C, 6 days)
7.0 cm: Height (0.0001 mg/l, 5 °C, 3 days) | Height (0.01 mg/l, 1 °C, 3 days)
11.3 cm^2: Area of leaf (0.001 mg/l, 1 °C, 6 days)
2.6 g: Weight of root (0.0001 mg/l, 3 °C, 6 days) | Weight of root (0.0001 mg/l, 4 °C, 6 days) | Weight of root (0.001 mg/l, 3 °C, 6 days) | Weight of root (0.001 mg/l, 4 °C, 6 days) | Weight of root (0.01 mg/l, 3 °C, 6 days)
2.9 g: Weight of root (0.0001 mg/l, 3 °C, 9 days) | Weight of root (0.0001 mg/l, 3 °C, 12 days) | Weight of root (0.0001 mg/l, 4 °C, 12 days) | Weight of root (0.0001 mg/l, 5 °C, 9 days) | Weight of root (0.001 mg/l, 3 °C, 9 days) | Weight of root (0.001 mg/l, 3 °C, 12 days) | Weight of root (0.001 mg/l, 4 °C, 9 days) | Weight of root (0.001 mg/l, 4 °C, 12 days) | Weight of root (0.001 mg/l, 5 °C, 6 days)
13.1 cm^2: Area of leaf (0.0001 mg/l, 1 °C, 12 days) | Area of leaf (0.001 mg/l, 2 °C, 12 days)
7 cm: Height (0.0001 mg/l, 1 °C, 9 days) | Height (0.0001 mg/l, 2 °C, 6 days) | Height (0.001 mg/l, 3 °C, 3 days) | Height (0.001 mg/l, 3 °C, 6 days)
11.7 cm^2: Area of leaf (0.0001 mg/l, 2 °C, 6 days) | Area of leaf (0.0001 mg/l, 4 °C, 6 days)
3.3 g: Weight of root (0.001 mg/l, 1 °C, 9 days)
11.6 cm^2: Area of leaf (0.001 mg/l, 2 °C, 6 days) | Area of leaf (0.01 mg/l, 1 °C, 6 days)
6.9 cm: Height (0.0001 mg/l, 1 °C, 6 days) | Height (0.0001 mg/l, 3 °C, 3 days) | Height (0.0001 mg/l, 4 °C, 3 days) | Height (0.001 mg/l, 1 °C, 3 days) | Height (0.001 mg/l, 2 °C, 3 days)
13 cm^2: Area of leaf (0.0001 mg/l, 2 °C, 12 days) | Area of leaf (0.0001 mg/l, 4 °C, 9 days) | Area of leaf (0.001 mg/l, 1 °C, 12 days) | Area of leaf (0.001 mg/l, 3 °C, 12 days) | Area of leaf (0.001 mg/l, 4 °C, 9 days)
3.4 g: Weight of root (0.0001 mg/l, 1 °C, 9 days) | Weight of root (0.0001 mg/l, 2 °C, 12 days) | Weight of root (0.001 mg/l, 5 °C, 12 days)
13.6 cm^2: Area of leaf (0.01 mg/l, 1 °C, 12 days)
13.5 cm^2: Area of leaf (0.001 mg/l, 4 °C, 12 days)
12 cm^2: Area of leaf (0.0001 mg/l, 1 °C, 9 days) | Area of leaf (0.0001 mg/l, 5 °C, 6 days) | Area of leaf (0.001 mg/l, 3 °C, 6 days) | Area of leaf (0.01 mg/l, 1 °C, 9 days) | Area of leaf (0.01 mg/l, 3 °C, 6 days)
2.7 g: Weight of root (0.0001 mg/l, 4 °C, 9 days) | Weight of root (0.0001 mg/l, 5 °C, 6 days)
13.4 cm^2: Area of leaf (0.0001 mg/l, 4 °C, 12 days) | Area of leaf (0.01 mg/l, 2 °C, 12 days)
